{
  "source": "paper PMC3855667",
  "about": "(Biochemistry, 2013)",
  "target": "EmrD (Escherichia coli, UniProt P31442)",
  "sequence (P31442 whole entry)": "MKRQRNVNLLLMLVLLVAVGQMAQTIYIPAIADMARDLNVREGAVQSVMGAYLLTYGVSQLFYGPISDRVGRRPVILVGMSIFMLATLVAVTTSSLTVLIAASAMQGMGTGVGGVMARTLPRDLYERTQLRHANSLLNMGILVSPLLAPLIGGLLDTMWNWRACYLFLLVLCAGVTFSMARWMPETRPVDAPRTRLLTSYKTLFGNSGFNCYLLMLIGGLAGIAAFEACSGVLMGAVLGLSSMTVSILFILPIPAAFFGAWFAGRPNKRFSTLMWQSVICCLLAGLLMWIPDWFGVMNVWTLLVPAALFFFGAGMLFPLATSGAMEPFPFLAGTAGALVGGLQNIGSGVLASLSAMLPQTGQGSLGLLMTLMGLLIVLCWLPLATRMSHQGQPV",
  "assay": "fluorescence anisotropy titration with EmrD",
  "assay_type": "binding",
  "data": [
    {"compound": "COc1cccc2c1C(=O)c1c(O)c3c(c(O)c1C2=O)C[C@@](O)(C(=O)CO)C[C@@H]3O[C@H]1C[C@H](N)[C@H](O)[C@H](C)O1", "note": "[doxorubicin]", "values": [
      {"measurement": "Kd", "result": "~7", "unit": "µM"}
    ]}
  ]
}
